# Values of other authors, collected in paper PMC8146568, “Thermococcus bergensis sp. nov., a Novel Hyperthermophilic Starch-Degrading Archaeon” (Biology, 2021).
# Like-named read-outs stand apart in the source and are kept apart here.
# Tested on: T1, glyceraldehyde-3-phosphate ferredoxin oxidoreductase (GAPOR)
# T1 construct: gene gor; native, purified from starch-grown culture of "strain 7324" (DSM 8774 mixed culture, formerly attributed to Archaeoglobus fulgidus); 66 kDa monomer; N-terminus MRFSVLKINLNEKKVX(X)EVFEREXV
# Assay: benzyl viologen-dependent GAP oxidation, steady-state kinetics
# Assay type: biochemical, Thermococcus bergensis
# Conditions: pH 7.8, 50 °C, read-out: apparent Km
Compound,"Km (artificial electron acceptor, GAP as co-substrate) [µM]",Km (benzyl viologen as electron acceptor) [µM]
"c1ccc(C[n+]2ccc(-c3cc[n+](Cc4ccccc4)cc3)cc2)cc1 [BV, benzyl viologen]",4000,
"O=C[C@H](O)COP(=O)(O)O [GAP, glyceraldehyde-3-phosphate]",,5
